The results in this text go back to patent EP0214862A2, “Anti-tumour platinum complexes, their preparation and their use” (priority 1985, dated 1987).

Data set [1] relates to cisplatin-resistant L1210 cell line (L1210/CDDP). As to the kind of experiment: In vitro sensitivity of the cisplatin-resistant cell line versus parent L1210. It counts as cell-based, mouse. Conditions: L1210/CDDP relative to the parent L1210 cell line. The source says: (§1) In the following experiments, the test animals used were 8 to 9 week old female mice of the CDF1 strain, each weighing 20-25 g. The standard L1210 leukemia cells were supplied by Dr. T. Yamamoto of the Institute of Medical Science, University of Tokyo, Japan, whilst the cisplatin-resistant L1210 cell line (L1210/CDDP) was supplied by Dr. T. Tashiro of the Cancer Chemotherapy Centre, Japanese Foundation for Cancer Research, Tokyo, Japan.

Data set [2] relates to cisplatin-resistant L1210/CDDP cells. As to the kind of experiment: Anti-tumour activity against cisplatin-resistant L1210/CDDP leukemia in mice (Experiment 2). The format is in vivo.
From the text: as §1
(§2) CDF1 mice were inoculated intraperitoneally with L1210 cells ([…]). […] Each drug was injected intraperitoneally on days 1 and 4 following tumour implantation. The number of mice in each test group was 6.
(§3) The increase in life span (ILS) was calculated as follows: • ILS% = [(St/Su) - 1] x 100 • in which: • St = weighted median number of days survival of treated mice; and • Su = weighted median number of days survival of untreated mice.
The procedures described in Experiment 1 were repeated exactly, except that the tumour cells were cisplatin-resistant L1210/CDDP cells.

The next data set has as its system L1210 cells. As to the kind of experiment: Anti-tumour activity against L1210 leukemia inoculated intraperitoneally in mice (Experiment 1). Conditions: L1210, CDF1 mice. It counts as in vivo. The method, then:
In the following experiments, the test animals used were 8 to 9 week old female mice of the CDF1 strain, each weighing 20-25 g.
as §2, §3

The mark [3] stands for this setting: Dose 2.5 mg/kg intraperitoneally on days 1 and 4, CDF1 mice.
[4] abbreviates: Dose 5 mg/kg intraperitoneally on days 1 and 4, CDF1 mice.
The mark [5] stands for this setting: Dose 0.625 mg/kg intraperitoneally on days 1 and 4.
Where [6] appears, read: Dose 1.25 mg/kg intraperitoneally on days 1 and 4.
Setting [7] is: Dose 2.5 mg/kg intraperitoneally on days 1 and 4.
Setting [8] is: Dose 5 mg/kg intraperitoneally on days 1 and 4.
[9] abbreviates: Dose 10 mg/kg intraperitoneally on days 1 and 4.
Setting [10] is: Dose 20 mg/kg intraperitoneally on days 1 and 4.
Setting [11] is: Dose 40 mg/kg intraperitoneally on days 1 and 4.
[12] abbreviates: Dose 80 mg/kg intraperitoneally on days 1 and 4.
The mark [13] stands for this setting: Dose 30 mg/kg intraperitoneally on days 1 and 4, CDF1 mice.
Setting [14] is: Dose 60 mg/kg intraperitoneally on days 1 and 4, CDF1 mice.

As to `N.N.[Cl][Pt][Cl]` [cisplatin], in data set [1], the “degree of cisplatin resistance in terms of in vitro sensitivity” value amounted to 40 fold. For the same molecule, in data set [2] (setting [3]), the 30-day survivors is 0/5, the “Body weight change from days 1 to 7” value was “+1.0”, the “ILS(%)” value came out at 2% and the Median survival days is given as 9.3 days. For the same molecule, in data set [2] (setting [4]), the 30-day survivors is recorded as 0/6, the “Body weight change from days 1 to 7” value was -1.9, the “ILS(%)” value was found to be 9% and the Median survival days was determined as 9.9 days. Also, in the data set on L1210 cells (setting [5]), the “ILS (Increase in life span)” value came to 8%, the “Med.S.T. (Median survival time)” value turned out to be 9.1 days, the “Survivors on day 42” value was 0/6 and the “Wt. Change (Change in body weight from day 1 to day 7)” value (shortened to “Wt. Change”) is reported as “+1.6 g”. Further, in the data set with L1210 cells (setting [6]), the “ILS (Increase in life span)” value came to 15%, the “Med.S.T. (Median survival time)” value was 9.7 days, the “Survivors on day 42” value was 0/6 and the “Wt. Change” value was “+2.5 g”. Further, in the data set on L1210 cells (setting [7]), the “ILS (Increase in life span)” value stood at 58%, the “Med.S.T. (Median survival time)” value came to 13.3 days, the “Survivors on day 42” value is recorded as 0/6 and the “Wt. Change” value is on record as “+1.7 g”. Besides, in the data set with L1210 cells (setting [8]), the “ILS (Increase in life span)” value worked out at 364%, the “Med.S.T. (Median survival time)” value was 39.0 days, the “Survivors on day 42” value was 2/6 and the “Wt. Change” value is given as -3.5 g. Also, in the data set with L1210 cells (setting [9]), the “ILS (Increase in life span)” value came to 23%, the “Med.S.T. (Median survival time)” value was 10.3 days, the “Survivors on day 42” value is 0/6 and the “Wt. Change” value was -5.5 g.

On to `C1CCC2[NH][Pt-2]3([NH]C2C1)[O]C1=[N+](CCN1)[Pt-2]1([NH2+]C2CCCCC2[NH2+]1)[OH+]3` (stereo not drawn) [Example 1, Hydroxo(ethyleneurea-N,O)-bis(cis-(trans-(ℓ)-1,2-diaminocyclohexane)platinum (II)] nitrate], for which the “Body weight change from days 1 to 7” value in data set [2] (setting [4]) is listed as “+2.4”; in data set [2] (Dose 10 mg/kg intraperitoneally on days 1 and 4, CDF1 mice) it was “+2.3”; in data set [2] (Dose 20 mg/kg intraperitoneally on days 1 and 4, CDF1 mice), “+2.2”; in data set [2] (Dose 40 mg/kg intraperitoneally on days 1 and 4, CDF1 mice), -0.3; in data set [2] (Dose 80 mg/kg intraperitoneally on days 1 and 4, CDF1 mice), -0.5; in data set [2] (Dose 160 mg/kg intraperitoneally on days 1 and 4, CDF1 mice) it was -1.8. The “Wt. Change” value in the data set with L1210 cells (setting [8]) is listed as “+2.6 g”; in the data set with L1210 cells (setting [9]), “+2.8 g”; in the data set with L1210 cells (setting [10]), “+2.2 g”; with L1210 cells (setting [11]), “+0.4 g”; in the data set on L1210 cells (setting [12]) it was “+0.2 g”; with L1210 cells (Dose 160 mg/kg intraperitoneally on days 1 and 4) it was -3.0 g. In addition, the “toxic (number of mice)” value in the data set on L1210 cells (Dose 240 mg/kg intraperitoneally on days 1 and 4) was “- (2/6, toxic)”; in the data set on L1210 cells (Dose 320 mg/kg intraperitoneally on days 1 and 4), “- (5/6, toxic)”.

For the molecule carboplatin, in data set [2] (setting [13]), the 30-day survivors is 0/6, the “Body weight change from days 1 to 7” value is “+1.2”, the “ILS(%)” value is 9% and the Median survival days worked out at 9.9 days. Also, in data set [2] (setting [14]), the 30-day survivors is 0/6, the “Body weight change from days 1 to 7” value is reported as -0.6, the “ILS(%)” value worked out at 8% and the Median survival days came out at 9.8 days. Moreover, in the data set with L1210 cells (setting [8]), the “ILS (Increase in life span)” value was 7%, the “Med.S.T. (Median survival time)” value is 9.0 days, the “Survivors on day 42” value is recorded as 0/6 and the “Wt. Change” value is on record as “+1.3 g”. In addition, in the data set on L1210 cells (setting [9]), the “ILS (Increase in life span)” value turned out to be 7%, the “Med.S.T. (Median survival time)” value amounted to 9.0 days, the “Survivors on day 42” value is 0/6 and the “Wt. Change” value is “+2.0 g”. Also, in the data set on L1210 cells (setting [10]), the “ILS (Increase in life span)” value turned out to be 7%, the “Med.S.T. (Median survival time)” value was found to be 9.0 days, the “Survivors on day 42” value is 0/6 and the “Wt. Change” value is reported as “+0.8 g”. Moreover, in the data set on L1210 cells (setting [11]), the “ILS (Increase in life span)” value is listed as 10%, the “Med.S.T. (Median survival time)” value was determined as 9.2 days, the “Survivors on day 42” value is listed as 0/6 and the “Wt. Change” value was “+0.4 g”. Moreover, in the data set on L1210 cells (setting [12]), the “ILS (Increase in life span)” value was determined as 23%, the “Med.S.T. (Median survival time)” value came to 10.3 days, the “Survivors on day 42” value is 0/6 and the “Wt. Change” value is recorded as -0.5 g.
